# Assay results as given in EP0565593B1, “REDUCING PESTICIDAL INTERACTIONS IN CROPS” (priority 1990, dated 1992).
# “And” between values parts separate entries of the source, which are not always exact repeats. Equal entries are not always repeated. Where two headings read alike, the source gives them in different places.
# Experiments:
# Corn = experiment: Multi-crop greenhouse test, herbicide POE (Examples 62-64; Tables 61-63); assay type: in vivo; settings: COUNTER 15G and BEACON; Example 62
# Procedure: Tests according to this invention in various crops indicate widespread application of the invention. In Examples 62-66 below are described tests with a variety of herbicides contacted with COUNTER® 15G in the presence and absence of MON-7400 (Antidote No. 12); MON-13900 (No. 1); MON-4660 (No. 16) and flurazole (No. 16). Those tests were conducted according to Procedures IV or V described above and illustrated further in other foregoing examples. Plants used in all tests were, for crops (as abbreviated in parentheses); cotton (COTT); soybean (SOBE); CORN, grain sorghum (GRSO); wheat (WHEA) and RICE, and the weeds giant foxtail (GIFT) and velvetleaf (VELE). The data in the tables below represent averages of two replications.
# In this test the crops and weeds were planted 1.3 cm deep in 13.7 cm X 27.7 cm pans containing Dupo silt loam soil. The test safeners were applied in acetone solution and COUNTER 15G as dry granules to soil cover layers and incorporated by shaking in a bag. Treated cover layers were placed on seeded pans which were transferred to greenhouse benches and subirrigated. Herbicide was applied POE six (6) days after PPI initiation and observations of plant injury made ten (10) days later; results are shown in Table 61. The herbicide used in this example was BEACON (No. 8).
# The test procedure described in Example 62 was repeated using ACCENT® (Herbicide No. 7) as the herbicide; the biocide and safeners were the same.
# Giant foxtail (GIFT) [1] = experiment: Greenhouse test Procedure VII (same examples); assay type: in vivo
# Source text: This procedure describes interaction among herbicide, biocide and antidote when the biocide and the antidote is applied to a soil furrow containing crop seed before emergence of the crop and the herbicide is applied after emergence of the crop and weeds. The soil and planting depth was described in Procedure IV. The containers for comparison, the biocide and antidote applications to soil furrows were described in Procedure VI. In this procedure, the seed beds of the first, second, third and fourth containers are covered by soil layers not treated with herbicide. The containers were then placed on a bench in a greenhouse and subirrigated as required for the duration of the test. The herbicide, dispersed or dissolved in water containing 0.25% v/v nonionic surfactant (X-77) was applied by a track sprayer (187 L/ha) to the emerged plants of the second, third and fourth containers about five days after planting. All treatments were run in duplicate. Plant response was observed according to Procedure IV. Variations in this procedure will be noted in the examples.
# In these tests (according to Procedure VII) the safeners in solution with acetone were applied in furrow to the soil, followed by COUNTER 15G granules at 227 g/305 m (8 oz./1000'). Applications were made in alternate rows in two separate 13.7 cm x 27.7 cm pans containing Dupo silt loam. Pans were seeded 1.3 cm deep, placed on benches in a greenhouse and subirrigated. BEACON was formulated in water with 0.25% v/v X-77 surfactant and applied by track sprayer at a rate of 187 L/Ha (20 gal/A). Weed species in this test were giant foxtail, shattercane and velvetleaf. The herbicide was applied five (5) days after PPI initiation and observation of test result (shown in Table 47) made eight (8) days later.
# In Table 47 COUNTER 15G is abbreviated as "C" and the antidotes as "A" in the column headings which indicate the "C + A" ratios used in the tests. Control and COUNTER treatments are average of four (4) replications and COUNTER + Antidote treatments, average of 2 reps.
# Velvetleaf (VELE) = assay type: in vivo, Abutilon theophrasti
# Giant foxtail (GIFT) [2] = experiment: whole plant or invertebrate; assay type: in vivo
# wheat (WHEA) = experiment: Multi-crop greenhouse test, soil-applied (Examples 65, 66; Tables 64, 65); assay type: in vivo
# In short: (§1)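 Dupo silt loam pans, seeds 1.3 cm deep; safener (acetone) + COUNTER 15G granules mixed into cover soil; subirrigated. MON-12000 run: herbicide POE day 6, light overhead irrigation days 4–7, injury scored 10 d later. XRD-498 run: all three components applied together to covers. Mean of 2 reps.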
# soybean (SOBE) = experiment: as above; assay type: in vivo
# In short: as §1
# [3] = Antidote + Biocide No. 1 in furrow, Herbicide No. 1 0.14 Kg/Ha POE, 8 days after POE
# [4] = Antidote + Biocide No. 1 in furrow, Herbicide No. 4 0.17 Kg/Ha POE, 8 days after POE
# [5] = Antidote + Biocide No. 1 in furrow, Herbicide No. 5 0.07 Kg/Ha POE, 8 days after POE
# [6] = Antidote + Biocide No. 1 in furrow, Herbicide No. 6 0.01 Kg/Ha POE
# [7] = Antidote + Biocide No. 1 in furrow, Herbicide No. 7 0.56 Kg/Ha POE, 8 days after POE
# [8] = Antidote + Biocide No. 1 in furrow, Herbicide No. 9 0.009 Kg/Ha POE
# [9] = Antidote + Biocide No. 1 in furrow, Herbicide No. 10 0.002 Kg/Ha POE, 8 days after POE
# [10] = Antidote + Biocide No. 1 in furrow, Herbicide No. 15 0.0044 Kg/Ha POE, 8 days after POE
# [11] = Antidote + Biocide No. 1 in furrow, Herbicide No. 16 0.01 Kg/Ha POE
# [12] = Antidote + Biocide No. 1 in furrow, Herbicide No. 18 0.0044 Kg/Ha POE
# [13] = Antidote + Biocide No. 1 in furrow, Herbicide No. 19 0.28 Kg/Ha POE
# [14] = Antidote + Biocide No. 1 in furrow, Herbicide No. 21 0.14 Kg/Ha POE
# [15] = Antidote + Biocide No. 1 in furrow, Herbicide No. 23 0.0006 Kg/Ha POE
# [16] = Antidote 4.48 + Biocide No. 1 8.96 Kg/Ha PPI, Herb. No. 8 0.07, 5 DAP, before herbicide application
# [17] = Antidote 4.48 + Biocide No. 1 8.96 Kg/Ha PPI, Herb. No. 8 0.07 POE, 13 DAP
# [18] = Antidote 4.48 + Biocide No. 1 8.96 Kg/Ha PPI, Herbicide No. 7 0.28 POE, 13 days after planting
# [19] = Herb. […], 5 DAP, before herbicide application
# [20] = Table 14: Herbicide No. 7 (ACCENT) 0.84 Kg/Ha POE + Biocide No. 2 8.96 Kg/Ha PPI + antidote 4.48 Kg/Ha PPI, 13 days after planting, 8 days after herbicide
# [21] = […], 13 days after planting, 8 days after herbicide
# [22] = […], observed 10 days after herbicide application
# [23] = Table 64, Herb. No. 1 0.018 Kg/Ha + Biocide No. 1 8.96 Kg/Ha + Antidote 4.48 Kg/Ha
# [24] = Table 64, Herb. No. 1 0.07 Kg/Ha + Biocide No. 1 8.96 Kg/Ha + Antidote 4.48 Kg/Ha
# [25] = Table 64, Herb. No. 1 0.28 Kg/Ha + Biocide No. 1 8.96 Kg/Ha + Antidote 4.48 Kg/Ha
# [26] = Table 65, Herb. No. 1 0.018 Kg/Ha + Biocide No. 1 8.96 Kg/Ha + Antidote 4.48 Kg/Ha
# [27] = Table 65, Herb. No. 1 0.07 Kg/Ha + Biocide No. 1 8.96 Kg/Ha + Antidote 4.48 Kg/Ha
# [28] = Table 65, Herb. No. 1 0.28 Kg/Ha + Biocide No. 1 8.96 Kg/Ha + Antidote 4.48 Kg/Ha
compound,measurement,setting,value
"O=C(OCc1ccccc1)c1sc(Cl)nc1C(F)(F)F [Antidote No. 7, 5-Thiazolecarboxylic acid, 2-chloro-4-(trifluoromethyl)-, (phenylmethyl) ester]",corn injury,Corn,effectively reduced
"COC(=O)COC(c1ccccc1)c1ccccc1 [Antidote No. 12, Acetic acid, (diphenylmethoxy)-, methyl ester]",corn injury,Corn,effectively reduced
COC(=O)COC(c1ccccc1)c1ccccc1 [compound 12],% Inhibition GIFT,Giant foxtail (GIFT) [1]; [3],0%
same,% Inhibition GIFT,Giant foxtail (GIFT) [1]; [4],0%
same,% Inhibition GIFT,Giant foxtail (GIFT) [1]; [5],0%
same,% Inhibition GIFT,Giant foxtail (GIFT) [1]; [6],50%
same,% Inhibition GIFT,Giant foxtail (GIFT) [1]; [7],85%
same,% Inhibition GIFT,Giant foxtail (GIFT) [1]; [8],10%
same,% Inhibition GIFT,Giant foxtail (GIFT) [1]; [9],0%
same,% Inhibition GIFT,Giant foxtail (GIFT) [1]; [10],0%
same,% Inhibition GIFT,Giant foxtail (GIFT) [1]; [11],20%
same,% Inhibition GIFT,Giant foxtail (GIFT) [1]; [12],60%
same,% Inhibition GIFT,Giant foxtail (GIFT) [1]; [13],35%
same,% Inhibition GIFT,Giant foxtail (GIFT) [1]; [14],25%
same,% Inhibition GIFT,Giant foxtail (GIFT) [1]; [15],25%
same,% Inhibition 5 DAP VELE,Velvetleaf (VELE); [16],25%
same,% Inhibition 13 DAP VELE,Velvetleaf (VELE); [17],90%
same,% Inhibition VELE,Velvetleaf (VELE); [18],65%
same,% Inhibition 5 DAP VELE,Velvetleaf (VELE); [19],0%
same,% Inhibition 13 DAP VELE,"Velvetleaf (VELE); Herb. […], 13 DAP, after herbicide application",90%
same,% Inhibition VELE,Velvetleaf (VELE); [20],70%
same,% Inhibition VELE,Velvetleaf (VELE); [21],75%
same,% Inhibition VELE,"Velvetleaf (VELE); […], observed 8 days later (Table 32)",85%
same,% Inhibition VELE,"Velvetleaf (VELE); […], observed 8 days later (Table 33)",75%
same,% Inhibition VELE,Velvetleaf (VELE); [22],90%
same,% Inhibition 5 DAP VELE,Velvetleaf (VELE); in vivo,20%
same,% Inhibition 13 DAP VELE,Velvetleaf (VELE); in vivo,85%
same,% Inhibition VELE,Velvetleaf (VELE); in vivo,70% and 65% and 85% and 75% and 90% and 80%
same,% Inhibition GIFT,"Giant foxtail (GIFT) [2]; […], PPI, 14 days after PPI (Table 34)",60%
same,% Inhibition GIFT,Giant foxtail (GIFT) [2]; in vivo,45% and 65% and 75% and 50% and 55% and 70% and 90%
same,% Inhibition WHEA,wheat (WHEA); [23],0%
same,% Inhibition WHEA,wheat (WHEA); [24],0%
same,% Inhibition WHEA,wheat (WHEA); [25],0%
same,% Inhibition WHEA,wheat (WHEA); [26],0%
same,% Inhibition WHEA,wheat (WHEA); [27],0%
same,% Inhibition WHEA,wheat (WHEA); [28],20%
same,% Inhibition SOBE,soybean (SOBE); [23],5%
same,% Inhibition SOBE,soybean (SOBE); [24],70%
same,% Inhibition SOBE,soybean (SOBE); [25],80%
same,% Inhibition SOBE,soybean (SOBE); [26],0%
same,% Inhibition SOBE,soybean (SOBE); [27],0%
same,% Inhibition SOBE,soybean (SOBE); [28],15%
"CC1(C)OC(c2ccco2)CN1C(=O)C(Cl)Cl (stereo not drawn) [Antidote No. 1, Oxazolidine, 3-(dichloroacetyl)-2,2-dimethyl-5-(2-furanyl)-]",corn injury,Corn,effectively reduced
CC1(C)OC(c2ccco2)CN1C(=O)C(Cl)Cl (stereo not drawn) [compound 1],% Inhibition GIFT,Giant foxtail (GIFT) [1]; [3],0%
same,% Inhibition GIFT,Giant foxtail (GIFT) [1]; [4],0%
same,% Inhibition GIFT,Giant foxtail (GIFT) [1]; [5],0%
same,% Inhibition GIFT,Giant foxtail (GIFT) [1]; [6],60%
same,% Inhibition GIFT,Giant foxtail (GIFT) [1]; [7],85%
same,% Inhibition GIFT,Giant foxtail (GIFT) [1]; [8],30%
same,% Inhibition GIFT,Giant foxtail (GIFT) [1]; [9],0%
same,% Inhibition GIFT,Giant foxtail (GIFT) [1]; [10],20%
same,% Inhibition GIFT,Giant foxtail (GIFT) [1]; [11],35%
same,% Inhibition GIFT,Giant foxtail (GIFT) [1]; [12],65%
same,% Inhibition GIFT,Giant foxtail (GIFT) [1]; [13],35%
same,% Inhibition GIFT,Giant foxtail (GIFT) [1]; [14],35%
same,% Inhibition GIFT,Giant foxtail (GIFT) [1]; [15],20%
same,% Inhibition GIFT,"Giant foxtail (GIFT) [1]; Herbicide No. 1 0.14 Kg/Ha POE + Biocide No. 1 in furrow, no antidote, 8 days after POE",0%
same,% Inhibition GIFT,"Giant foxtail (GIFT) [1]; Herbicide No. 1 0.14 Kg/Ha POE alone, 8 days after POE",0%
same,% Inhibition 5 DAP VELE,Velvetleaf (VELE); [16],0%
same,% Inhibition 13 DAP VELE,Velvetleaf (VELE); [17],90%
same,% Inhibition VELE,Velvetleaf (VELE); [18],70%
same,% Inhibition 5 DAP VELE,Velvetleaf (VELE); [19],0%
same,% Inhibition VELE,Velvetleaf (VELE); [20],65%
same,% Inhibition VELE,Velvetleaf (VELE); [21],70%
same,% Inhibition VELE,"Velvetleaf (VELE); […], observed 9 days later (Table 29)",90%
same,% Inhibition VELE,"Velvetleaf (VELE); […], observed 9 days later (Table 30)",75%
same,% Inhibition VELE,Velvetleaf (VELE); [22],80%
same,% Inhibition 5 DAP VELE,Velvetleaf (VELE); in vivo,10%
same,% Inhibition 13 DAP VELE,Velvetleaf (VELE); in vivo,90%
same,% Inhibition VELE,Velvetleaf (VELE); in vivo,75% and 65% and 80% and 70% and 85%
same,% Inhibition GIFT,"Giant foxtail (GIFT) [2]; […], PPI, 13 days after PPI (Table 31)",70%
same,% Inhibition GIFT,Giant foxtail (GIFT) [2]; in vivo,45% and 60% and 85% and 65% and 90% and 55%
same,% Inhibition WHEA,wheat (WHEA); [23],0%
same,% Inhibition WHEA,wheat (WHEA); [24],0%
same,% Inhibition WHEA,wheat (WHEA); [25],0%
same,% Inhibition WHEA,wheat (WHEA); [26],10%
same,% Inhibition WHEA,wheat (WHEA); [27],25%
same,% Inhibition WHEA,wheat (WHEA); [28],70%
same,% Inhibition SOBE,soybean (SOBE); [23],35%
same,% Inhibition SOBE,soybean (SOBE); [24],75%
same,% Inhibition SOBE,soybean (SOBE); [25],70%
same,% Inhibition SOBE,soybean (SOBE); [26],0%
same,% Inhibition SOBE,soybean (SOBE); [27],0%
same,% Inhibition SOBE,soybean (SOBE); [28],5%
